The values that follow come from PubChem BioAssay (NCI).

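Following 48 hours of exposure in 96-well plates, responses at five concentrations were used to interpolate endpoints linearly. GI50 = concentration required for 50% inhibition of growth. Definition used: TGI = concentration required for complete inhibition of growth.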

The subject of the first assay is U251 CNS. Put plainly: NCI tumour cell line growth inhibition, 48 h.
In the case of `CCC1(C(=O)OC(C)(C)C)OC12C(C)CCCC2C` (stereo not drawn), the TGI is more than 100 µM.

`Cc1ccc(-c2cc(N)n(-c3nc4c(c(=O)n(C)c(=O)n4C)n3C)n2)cc1` had a TGI of more than 100 µM.

The compound `O=C(Cc1ccccc1)NN1C(=O)/C(=C\c2cccc(O)c2)SC1=Nc1ccccc1` registered a TGI of more than 100 µM.

`CN(C)c1ccc(C2SCC(=O)N2NS(=O)(=O)c2cccc(C(=O)O)c2)cc1` (stereo not drawn) showed a TGI of more than 100 µM.

Compound `CC1CCOc2ccc(cc2)C=Nc2ccc(cc2)CCc2ccc(cc2)N=Cc2ccc(cc2)OCC1` (stereo not drawn) registered a TGI of more than 100 µM.

Regarding `COC(=O)[C@H](Cc1ccccc1)NC(=O)[C@H](Cc1ccccc1)NC(=O)[C@@H]1CCCN1C(=O)N[C@H]1C2C=CC(C2)C1C(=O)N1CCC[C@H]1C(=O)N[C@@H](C)C(=O)N[C@H](C(=O)OC)C(C)C` (stereo partly drawn), the TGI was more than 100 µM.

In turn, `O=C1c2ccccc2-c2nc(-c3cccc([N+](=O)[O-])c3)nnc21` showed a TGI of more than 100 µM.

For `CNC(=O)Oc1ccc(-c2cn3cc(OC(=O)NC)ccc3n2)cc1`, the TGI is more than 100 µM.

In turn, `CC(=O)N1N=C(c2ccc3ccccc3c2O)CC1C(=O)c1ccco1` (stereo not drawn) registered a TGI of more than 100 µM.

For `N#Cc1nc(-c2cccs2)oc1N`, the TGI was more than 100 µM.

Consider `NC(=O)NNC(=O)c1nc[nH]c1[N+](=O)[O-]`, for which the TGI was more than 100 µM.

With `O=c1c2c([N+](=O)[O-])cccc2nc2[nH]c3ccccc3n12`, the TGI was more than 75 µM.

`Cc1cc(C)cc(Nc2cc(=O)[nH]c(=O)[nH]2)c1` came in with a TGI of more than 100 µM.

For `Nn1c(CCCCCCCCc2nnc(COc3ccc(Cl)cc3)n2N)nnc1COc1ccc(Cl)cc1`, the TGI is more than 100 µM.

`O=C(O)c1ccc(S(=O)(=O)c2ccccc2[N+](=O)[O-])cc1` yielded a TGI of more than 10 µM.

Turning to `CC1(CF)SCc2nc3ccccc3n21` (stereo not drawn), the TGI is more than 100 µM.

Take `C[C@]12CCc3nc(Nc4ccccc4)sc3C1=CC[C@@H]1[C@@H]2CC[C@]2(C)/C(=N/NC(N)=S)CC[C@@H]12`: the GI50 is 3.64 µM and the TGI was more than 100 µM.

In turn, `COC(=O)C1=C2SCc3cccc(c3)CSC3=C(C(=O)OC)SC(=C(S2)S1)S3` displayed a TGI of more than 100 µM.

Compound `Nc1cccc(Nc2nc3ccccc3nc2NS(=O)(=O)c2ccccc2)c1` showed a TGI of 35.3 µM.

On to `COC(=O)C1=CC(=O)OC1(OO)c1ccccc1` (stereo not drawn), for which the TGI was more than 100 µM.

`CN(C)Cc1cc(C(=O)/C=C/c2ccccc2Cl)cc(CN(C)C)c1O` yielded a TGI of 27 µM.

As to `O=C1NC(N/N=C/C(O)C(O)C(O)CO)=N/C1=C\c1ccco1` (stereo not drawn), the TGI is more than 100 µM.

With `Cc1ccn2c(=O)cc(-c3ccccc3)nc2c1`, the TGI is more than 100 µM.

`O=c1[nH]nc(Cc2ccc([N+](=O)[O-])cc2)n1CCO` returned a TGI of more than 100 µM.

Compound `Cc1cc(C2(O)C=C(C(C)(C)C)C(=O)C(C(C)(C)C)=C2)c(C)cc1C1(O)C=C(C(C)(C)C)C(=O)C(C(C)(C)C)=C1` registered a TGI of more than 100 µM.

`O=C(O)CC[N+]1=CCC(c2ccccc2)(c2ccccc2)O1` showed a TGI of more than 100 µM.

Consider `CC1=NN(c2ccc(S(=O)(=O)O)cc2)C2(C1)SCC(=O)N2c1nc2ccccc2s1` (stereo not drawn), for which the TGI was more than 100 µM.

Compound `CCc1ccc2oc(-c3cc(O)c(-c4nc5cc(CC)ccc5o4)cc3O)nc2c1` came in with a TGI of more than 100 µM.

For `CCOC(=O)/C=C(/C(=O)OCC)n1ccc(N)nc1=O`, the TGI was more than 100 µM.

Turning to `Cc1ccc2c(c1)[nH]c1cc(C(F)(F)F)ccc1[p+]2=O` (stereo not drawn), the TGI was more than 100 µM.

For the compound `NCCN=C(Nc1ccccc1)Nc1ccccc1`, the TGI is more than 100 µM.

Compound `CCC1(C)N=C(c2cnccn2)NN1c1ccc(Cl)cc1` (stereo not drawn) came in with a TGI of more than 100 µM.

In the case of `CC1Cn2c(nc3ccccc32)NC1=O` (stereo not drawn), the TGI was more than 100 µM.

The compound `C/C=C/C(O)P1(=O)N(Cc2ccccc2)[C@@H]2CCCC[C@H]2N1Cc1ccccc1` (stereo partly drawn) registered a TGI of more than 25 µM.

A further assay relates to UO-31 renal. The assay is described as follows: NCI tumour cell line growth inhibition, 48 h.
In turn, `CCC1(C(=O)OC(C)(C)C)OC12C(C)CCCC2C` (stereo not drawn) had a TGI of more than 100 µM.

`Cc1ccc(-c2cc(N)n(-c3nc4c(c(=O)n(C)c(=O)n4C)n3C)n2)cc1` gave a TGI of more than 100 µM.

In the case of `O=C(Cc1ccccc1)NN1C(=O)/C(=C\c2cccc(O)c2)SC1=Nc1ccccc1`, the TGI is more than 100 µM.

Consider `CN(C)c1ccc(C2SCC(=O)N2NS(=O)(=O)c2cccc(C(=O)O)c2)cc1` (stereo not drawn), for which the TGI is more than 100 µM.

With `CC1CCOc2ccc(cc2)C=Nc2ccc(cc2)CCc2ccc(cc2)N=Cc2ccc(cc2)OCC1` (stereo not drawn), the TGI is more than 100 µM.

Compound `COC(=O)[C@H](Cc1ccccc1)NC(=O)[C@H](Cc1ccccc1)NC(=O)[C@@H]1CCCN1C(=O)N[C@H]1C2C=CC(C2)C1C(=O)N1CCC[C@H]1C(=O)N[C@@H](C)C(=O)N[C@H](C(=O)OC)C(C)C` (stereo partly drawn) gave a TGI of more than 100 µM.

The compound `O=C1c2ccccc2-c2nc(-c3cccc([N+](=O)[O-])c3)nnc21` gave a TGI of 42.2 µM.

The compound `CNC(=O)Oc1ccc(-c2cn3cc(OC(=O)NC)ccc3n2)cc1` displayed a TGI of more than 100 µM.

As for `CC(=O)N1N=C(c2ccc3ccccc3c2O)CC1C(=O)c1ccco1` (stereo not drawn), the TGI is more than 100 µM.

The compound `N#Cc1nc(-c2cccs2)oc1N` showed a TGI of more than 100 µM.

`NC(=O)NNC(=O)c1nc[nH]c1[N+](=O)[O-]`: the TGI is more than 100 µM.

Regarding `Cc1cc(C)cc(Nc2cc(=O)[nH]c(=O)[nH]2)c1`, the TGI was more than 100 µM.

On to `Nn1c(CCCCCCCCc2nnc(COc3ccc(Cl)cc3)n2N)nnc1COc1ccc(Cl)cc1`, for which the TGI was more than 100 µM.

In turn, `CC1(CF)SCc2nc3ccccc3n21` (stereo not drawn) gave a TGI of more than 100 µM.

Consider `C[C@]12CCc3nc(Nc4ccccc4)sc3C1=CC[C@@H]1[C@@H]2CC[C@]2(C)/C(=N/NC(N)=S)CC[C@@H]12`, for which the GI50 is 3.71 µM and the TGI is more than 100 µM.

`COC(=O)C1=C2SCc3cccc(c3)CSC3=C(C(=O)OC)SC(=C(S2)S1)S3` came in with a TGI of more than 100 µM.

Regarding `Nc1cccc(Nc2nc3ccccc3nc2NS(=O)(=O)c2ccccc2)c1`, the TGI was found to be 50.4 µM.

As for `COC(=O)C1=CC(=O)OC1(OO)c1ccccc1` (stereo not drawn), the TGI was more than 100 µM.

Turning to `CN(C)Cc1cc(C(=O)/C=C/c2ccccc2Cl)cc(CN(C)C)c1O`, the TGI was determined as 22.4 µM.

Turning to `O=c1[nH]nc(Cc2ccc([N+](=O)[O-])cc2)n1CCO`, the TGI is more than 100 µM.

In turn, `Cc1cc(C2(O)C=C(C(C)(C)C)C(=O)C(C(C)(C)C)=C2)c(C)cc1C1(O)C=C(C(C)(C)C)C(=O)C(C(C)(C)C)=C1` came in with a TGI of more than 100 µM.

With `O=C(O)CC[N+]1=CCC(c2ccccc2)(c2ccccc2)O1`, the TGI was more than 100 µM.

The compound `CC1=NN(c2ccc(S(=O)(=O)O)cc2)C2(C1)SCC(=O)N2c1nc2ccccc2s1` (stereo not drawn) gave a TGI of more than 100 µM.

The compound `CCc1ccc2oc(-c3cc(O)c(-c4nc5cc(CC)ccc5o4)cc3O)nc2c1` displayed a TGI of more than 100 µM.

Consider `CCOC(=O)/C=C(/C(=O)OCC)n1ccc(N)nc1=O`, for which the TGI is more than 100 µM.

Compound `CCCSc1ccc2[nH]c(/N=C/c3ccco3)cc2c1` had a TGI of more than 100 µM.

Regarding `NCCN=C(Nc1ccccc1)Nc1ccccc1`, the TGI was more than 100 µM.
